Data reported in patent US20120039796A1, “Novel method for creating, suspending and stabilizing electronically modified oxygen derivatives, along with creating, suspending and stabilizing electronically modified reaction intermediates, in a bio compatible fluorocarbon suspension, for the purpose of inducing a cascading immune response in …” (priority 2010, published 2012).

Assays:
TrxR = target: T1, TrxR (Homo sapiens, UniProt Q16881); details: cited from earlier work
T1 sequence (Q16881 151-649 limits assumed): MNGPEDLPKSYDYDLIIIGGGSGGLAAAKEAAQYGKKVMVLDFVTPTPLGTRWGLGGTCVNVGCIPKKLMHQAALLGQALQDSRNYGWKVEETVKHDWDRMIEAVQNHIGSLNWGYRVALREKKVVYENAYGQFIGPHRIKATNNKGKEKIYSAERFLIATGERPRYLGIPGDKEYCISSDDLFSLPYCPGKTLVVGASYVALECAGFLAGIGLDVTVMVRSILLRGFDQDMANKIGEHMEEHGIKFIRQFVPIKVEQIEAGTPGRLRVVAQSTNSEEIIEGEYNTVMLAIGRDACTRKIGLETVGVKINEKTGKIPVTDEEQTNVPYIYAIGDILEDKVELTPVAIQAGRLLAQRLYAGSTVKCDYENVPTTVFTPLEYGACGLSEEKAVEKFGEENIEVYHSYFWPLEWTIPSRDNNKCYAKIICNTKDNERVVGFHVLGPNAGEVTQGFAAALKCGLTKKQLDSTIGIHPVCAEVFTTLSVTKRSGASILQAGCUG

cancer cell cultures = details: cited from earlier work
[1] = Decay of ozone bubbled into distilled water, absorbance at 260 nm; assay type: physicochemical
Description: 15 ml of distilled h20 was used to bubble a mixture of ozone/oxygen through the sample for 30 min in a glass bubbler using a custom made proton exchange membrane ozone machine, which then 0.01 ml sample was quickly placed in a hatch DR 4000 u spectrometer, the machine was zeroed before the sample was placed in, also the absorbance wave length was set for 260 nm, the detection absorbance band of ozone, initial results at the peak were 0.590 ABS, but quickly decayed and after 20 min the ozone present in the sample was completely gone. This is the main problem with modem ozone therapy, the sample disappears with a predictable results extremely fast decay rate with in 20 min, and there is not enough of a concentration left to make a therapeutic difference, especially for burns, ulcerations, tendon injections.

[2] = Stability of ozone in 95% pure Fluorodecalin (C10F18), non-frozen, continuous absorbance at 260 nm; assay type: physicochemical
Description: (§1) After the ten hours expired, the spectrometer was quickly restarted for another 10 hours, were after the first 4 hours and 20 min in the second run is where the sample reached its half life. Once the 20 hours expired, the ABS reading was 0.082 were it took another 10 hours for Ozone too fully decay.
In the first PFC experiment, the ozone was stable within the PFC matrix for over 5 hours without any appreciable decay, after 5 hours the sample started to deviate and when the 10 hours mark was reached, the reading was around 0.600 ABS, in the last 5 hours of the run is when the sample lost 0.09 ABS, this was excellent result. In the second part of the experiment is where the sample decay accelerated. […] It should be noted the sample of PFC was 95% pure, and was the only purity I could attain at the time for the experiment and due to time constraints another sample could not have been attained. It should also be noted when the sample was finally removed from the machine for clean up, about 60 hours later after the initial experiment, half the sample evaporated. […] The utility of this patent is self evident; this invention solves the problems that plagued modern ozone therapy for the last 100 years.

[3] = Stability of ozone in Fluorodecalin stored frozen at -50 C for 30 days, absorbance at 260 nm; assay type: physicochemical
Description: as §1
After 30 days, the sample that was placed in the freezer was removed out of the freezer, with in 5 min the sample was completely thawed, which then a 0.01 ml sample was quickly placed it into the spectrometer were 3 consecutive single non timed scans were taken, with an average highest ABS reading of 0.688.

[4] = cited from earlier work
[5] = cited from earlier work; remark: listed apart in the source

O=C1c2c(O)cc(O)cc2O[C@H](c2ccc(O)c(O)c2)[C@H]1O [taxifolin]
inhibitory effect on TrxR (TrxR): NADPH-, concentration-, and time-dependent inhibitory effect

O=CC[C@@H](O)[C@H](O)[C@H](O)CO [Example 2-DG, 2-Deoxy-D-glucose]
apoptosis (cancer cell cultures; by glucose deprivation): induces apoptosis | effect on cell growth (cancer cell cultures): hampers cell growth

catechin
inhibitory effect on TrxR (TrxR): NADPH-, concentration-, and time-dependent inhibitory effect

O=[O+][O-] [ozone]
time after which ozone in the sample was completely gone ([1]; distilled h20): 20 min | initial absorbance at the peak ([1]; ozone/oxygen bubbled 30 min through distilled h20, 260 nm): 0.590 ABS | initial absorbance at the highest peak ([2]; 20/80 ozone/oxygen bubbled 20 min in Fluorodecalin, 260 nm): around 0.690 ABS | absorbance at the 10 hours mark ([2]; Fluorodecalin, non-frozen): around 0.600 ABS | absorbance once 20 hours expired ([2]; Fluorodecalin, non-frozen): 0.082 ABS | further time for ozone to fully decay after the 20 hours ([2]; Fluorodecalin, non-frozen): 10 h | deviation in ABS over the first 10 hours ([2]; Fluorodecalin, non-frozen, first 10 hour run): 0.09 ABS | stability in the frozen state ([3]; 30 days at -50 C): fully stabilized | average highest ABS reading after storage ([3]; 30 days in freezer at -50 C, thawed, 3 scans): 0.688 ABS | time stable in air at -50 degrees C ([4]; air, -50 degrees C): about 3 months | half-life in air ([4]; air): 12 h | half-life in saline ([4]; saline): less than 20 min | half-life in water ([4]; watery solution): about 20 minutes | amount dissolved in perfluorodecalin relative to oxygen ([5]; at stp): 13 times

O=c1c(O)c(-c2ccc(O)c(O)c2)oc2cc(O)cc(O)c12 [quercetin]
inhibitory effect on TrxR (TrxR): NADPH-, concentration-, and time-dependent inhibitory effect

O=c1c(O)c(-c2cc(O)c(O)c(O)c2)oc2cc(O)cc(O)c12 [myricetin]
inhibitory effect on TrxR (TrxR): NADPH-, concentration-, and time-dependent inhibitory effect

FC1(F)C(F)(F)C(F)(F)C2(F)C(F)(F)C(F)(F)C(F)(F)C(F)(F)C2(F)C1(F)F (centres unmarked) [perfluorodecalin]
volume of oxygen dissolved by 100 ml ([5]; 100 ml perfluorodecalin at 25° C., oxygen at STP): 49 mL

O=O [oxygen]
solubility in PFC liquids ([5]; PFC liquids for biomedical applications, 37° C., 1 atm): 40-50 vol. % | solubility in water ([5]; water, 37° C., 1 atm): 2.5 vol. %
